Experiments:
IL-13 = test: Analysis of cytokine mRNA (RT-PCR), IL-13; format: in vivo, Balb/c mice; settings: for Relative Densitometric Value, RDV, IL-13: NC = 100%, OVA group 187.35 ± 7.49
Description: (§1) To investigate the effect of the Wogonin of the present invention on asthma, 6-week old female Balb/c mice in the weight of about 20 g were used as test animals. After spending one week for adaptation, basic physical examination was performed to select normal ones.
(§2) The test animal was sensitized with 200 μl of phosphate buffer (pH 7.4) containing 2 mg of aluminum hydroxide (A8222, Sigma, St. Louis, Mo.) and 20 μg of ovalbumin (A5503, Sigma, St. Louis, Mo.) by intraperitoneal injection at 2 weeks interval. 1% ovalbumin was inhaled in the mouse for 30 minutes by using an ultrasonic nebulizer from the 28th day to the 30th day after the first intraperitoneal injection of ovalbumin (OVA).
(§3) 24 hours after the final antigen treatment, airway hypersensitivity was measured. 48 hours later, a lethal dose of pentobarbital (Entobar, Hanlim Pharm. Co. Ltd., Seoul, Korea) was administered to the mouse. Body weight was measured and tracheostomy was performed. Bronchoalveolar lavage was performed with 1.2 ml of saline, followed by sampling. The normal control group (NC) was administered with ovalbumin but not inhaled, the asthma induced group (OVA) was administered with ovalbumin and inhaled to induce bronchial asthma, the comparative group 1 (DEXA) was orally administered with dexamethasone (3 mg/kg, PO: D4902, Sigma, St. Louis, Mo.) one hour before inhaling ovalbumin, the comparative group 2 (Monte) was orally administered with montelukast (30 mg/kg, PO) one hour before inhaling ovalbumin, and the experimental group (Wogonin) was orally administered with the Wogonin of Example 1 (30 mg/kg, PO) one hour before inhaling ovalbumin. Each group was composed of 5 white mice.
(§4) To investigate the effect of the Wogonin of the present invention on asthma, asthma related cytokine mRNA was measured.
(§5) RNA was isolated from the lung by using trizol (Invitrogen) in order to measure the expressions of Th2 cytokines such as IL-4, IL-6, and IL-13 in the supernatant of bronchoalveolar lavage fluid taken from each group, followed by reverse transcriptase polymerase chain reaction (quantitative RT-PCR, Promega, Wis.). When the lowest expression was indicated as 1, relative densitometric value (RDV) was produced by that to evaluate the expression inhibition effect.

[1] = test system: inflammatory cells (eosinophils and other inflammatory cells) in bronchoalveolar lavage fluid; test: Analysis of inflammatory cells in bronchoalveolar lavage fluid; format: in vivo, Balb/c mice; settings: for Cell Number, other cells: OVA group 452.55 ± 93.48
Description: as §1, §2, §3
To investigate the effect of the Wogonin of the present invention on asthma, the present inventors measured the increase or decrease of inflammatory cell number which is believed to be involved in asthma.
As soon as bronchoalveolar lavage fluid was recovered from each group, it was stained with Trypan blue. Then, the number of cells, except dead cells, was counted by hemocytometer. The sample was smeared with Cytospin II, followed by Diff-Quick staining (Sysmex, Switzerland) to calculate the numbers of eosinophils and other inflammatory cells.

[2] = test system: infiltration of inflammatory cells around bronchiolus and blood vessels; test: Histopathological test of the lung (H&E, inflammatory index); format: in vivo, Balb/c mice; settings: index scale 0-4; for Inflammatory Index around bronchiolus: OVA group 3.60 ± 0.22; for Inflammatory Index around blood vessels: OVA group 3.80 ± 0.18
Description: as §1, §2, §3
The infiltration of inflammatory cells including eosinophils, neutrophils, and macrophages is observed in the bronchus sensitized with an antigen. To investigate the effect of the Wogonin of the present invention on asthma, the inventors performed histopathological test with the lung without bronchoalveolar lavage.
The lung extracted without bronchoalveolar lavage from each group was fixed with formalin and embedded in paraffin. Then, 4 μm thick permanent tissue sections were prepared, followed by H&E staining. Upon completion of H&E staining, inflammatory index was measured from 5 random regions of each section, and then mean value was calculated.

[3] = test system: airway hypersensitivity in ovalbumin-sensitized Balb/c mice; test: Measurement of airway hypersensitivity (Penh, methacholine inhalation, one chamber plethysmography); format: in vivo; settings: methacholine 12.5 mg/ml; OVA group 2.2917 ± 0.3070; mean±S.E.
[4] = Body weight of ovalbumin-induced asthma mice; format: in vivo, Balb/c mice; settings: OVA asthma induced mice; Wogonin 30 mg/kg PO, dexamethasone 3 mg/kg PO, montelukast 30 mg/kg PO; asthma induced group 19.72±0.53, normal control 21.60±0.25
Description: as §1, §2, §3

IgE = test: Measurement of IgE in serum and bronchoalveolar lavage fluid by enzyme immunoassay; format: in vivo, Balb/c mice; settings: mean±S.E.; for Total IgE Conc. in bronchoalveolar lavage fluid: OVA group 19.02 ± 2.43; for Total IgE Conc. in Serum: OVA group 23139.51 ± 484.45
Description: as §1, §2, §3
To investigate the effect of the Wogonin of the present invention on asthma, the inventors measured IgE concentration in serum and bronchoalveolar lavage fluid which is related to the severity of asthma by enzyme immunoassay.
Serum and bronchoalveolar lavage fluid taken from each group were loaded in […] plate on which 0.1M NaHCO3 buffer (pH 8.3) containing 20 μg/ml of ovalbumin (OVA) was coated at 4° C. for overnight. Non-specific reaction was blocked by PBS containing 1% bovine serum albumin. Serum sample was diluted at the ratio of 1:400, followed by reaction at room temperature for 2 hours.
After washing the plate well, the sample was reacted with anti-mouse IgE monoclonal antibody diluted at the ratio of 1:300 for 2 hours. HRP-conjugated goat anti-rat IgG polyclonal A was diluted at the ratio of 1:4000, which was added thereto for further reaction at room temperature for 1 hour, followed by washing.
For color development, 3.3′5.5′-tetramethylbenzidine substrate was added, followed by measuring OD650.

IL-4 = test: Analysis of cytokine mRNA (RT-PCR), IL-4; format: in vivo, Balb/c mice; settings: for Relative Densitometric Value, RDV, IL-4: NC = 100%, OVA group 159.91 ± 14.87
Description: as §1, §2, §3, §4, §5

reactive oxygen species = test: Measurement of reactive oxygen species generation (DCFH-DA fluorescence) in bronchoalveolar lavage fluid; format: in vivo, Balb/c mice; settings: for Reactive oxygen species generation, DCF fluorescence: NC = 100%, OVA group 192.89 ± 27.36; for reduction of reactive oxygen species generation compared with the asthma induced group: vs asthma induced group
Description: as §1, §2, §3
The increase of oxidative stress results in the decrease of reaction to steroids. To investigate the effect of the Wogonin of the present invention on asthma, the present inventors measured the generation of reactive oxygen species which is apparent in asthma like in other inflammatory diseases.
A portion of bronchoalveolar lavage fluid of each group was washed with PBS, to which 10 μM of 2,7-Dichlorofluorescein diacetate (DCFH-DA, 35845, Sigma, St. Louis, Mo.), one of the fluorescent reagents, was added. The mixture stood at room temperature for 10 minutes in the darkness, and then measured fluorescence with a spectrofluorometer (Ex=480 nm Em=522 nm).

[5] = test system: airway hypersensitivity in ovalbumin-sensitized Balb/c mice; test: Measurement of airway hypersensitivity (Penh, methacholine inhalation, one chamber plethysmography); format: in vivo; settings: for Penh value: mean±S.E.
Description: as §1, §2, §3
The effect of the Wogonin of the present invention on asthma related airway hypersensitivity was evaluated by measuring enhanced pause (Penh) which presents the grade of airway obstruction calculated by measuring airway resistance using one chamber plethysmorgraphy (All Medicus, Seoul). For the measurement of Penh, base value was measured under normal breathing condition and then PBS was inhaled by using an ultrasonic nebulizer for 3 minutes, followed by measuring for 3 minutes. Then, methacholine (A2251, Sigma, St. Louis, Mo.), the […], which is generally used to diagnose bronchial asthma, was inhaled to the animal with raising the concentration gradually (12, 25, and 50 mg/ml), followed by measuring Penh. The ratio of Penh increased over the concentrations of methacholine inhaled was presented as % and baseline Penh (saline challenge) was presented as 100%.

IL-6 = test: Analysis of cytokine mRNA (RT-PCR), IL-6; format: in vivo, Balb/c mice; settings: for Relative Densitometric Value, RDV, IL-6: NC = 100%, OVA group 128.20 ± 6.51
Description: as §1, §2, §3, §4, §5

[6] = methacholine 0 mg/ml, OVA group 0.6299 ± 0.0617
[7] = methacholine 25 mg/ml, OVA group 6.8642 ± 0.8313
[8] = methacholine 50 mg/ml, OVA group 9.1854 ± 1.6230

Structure (SMILES) | Relative Densitometric Value, RDV, IL-13 (IL-13) [%] | Cell Number, eosinophils ([1]; OVA group 71.75 ± 4.63) | Cell Number, other cells [1] | Cell Number, total cells ([1]; OVA group 524.30 ± 43.22) | Inflammatory Index around bronchiolus [2] | Inflammatory Index around blood vessels [2] | Penh value [3] | average body weight [4] [g] | Total IgE Conc. in bronchoalveolar lavage fluid (IgE) [ng/mL] | Total IgE Conc. in Serum (IgE) [ng/mL] | Relative Densitometric Value, RDV, IL-4 (IL-4) [%] | Reactive oxygen species generation, DCF fluorescence (reactive oxygen species) [%] | reduction of reactive oxygen species generation compared with the asthma induced group (reactive oxygen species) [%] | Penh value [5, 6] | Penh value [5, 7] | Penh value [5, 8] | Relative Densitometric Value, RDV, IL-6 (IL-6) [%] | further results
C[C@@H]1C[C@H]2[C@@H]3CCC4=CC(=O)C=C[C@]4(C)[C@@]3(F)[C@@H](O)C[C@]2(C)[C@@]1(O)C(=O)CO [DEXA, dexamethasone] | 176.55 ± 16.13 | 8.24 ± 1.31 ×10^3 cell/mouse | 81.00 ± 10.40 ×10^3 cell/mouse | 89.24 ± 6.98 ×10^3 cell/mouse | 1.75±0.19 | 1.50 ± 0.22 | 1.6750 ± 0.0820 | 21.04 ± 0.35 | 10.15 ± 1.38 | 15991.36 ± 1194.92 | 139.60 ± 13.34 | 116.55 ± 9.28 | 39.58 | 0.6486 ± 0.1526 | 1.9963 ± 0.1577 | 2.7864 ± 0.4293 | 121.37 ± 6.78 | Cell Number, eosinophils ([1]; OVA group 71.75 ± 4.63, listed as dexamethasone): 8.24±1.31 ×10^3 cell/mouse; Cell Number, total cells ([1]; OVA group 524.30 ± 43.22, listed as dexamethasone): 89.24±6.98 ×10^3 cell/mouse; Inflammatory Index around blood vessels ([2]; listed as comparative control group 1): 1.50±0.22
CC(C)(O)c1ccccc1CC[C@@H](SCC1(CC(=O)O)CC1)c1cccc(/C=C/c2ccc3ccc(Cl)cc3n2)c1 [Monte, montelukast] | 157.67 ± 16.60 | 27.88 ± 2.80 ×10^3 cell/mouse | 130.12 ± 9.22 ×10^3 cell/mouse | 167.68 ± 8.80 ×10^3 cell/mouse | 2.25±0.22 | 2.50 ± 0.25 | 1.5249 ± 0.2432 | 21.08 ± 0.36 | 10.15 ± 1.58 | 17176.54 ± 2542.98 | 138.86 ± 19.52 | 104.48 ± 9.80 | 45.84 | 0.4525 ± 0.0313 | 2.1006 ± 0.4758 | 2.3576 ± 0.1741 | 112.39 ± 7.16 | Cell Number, eosinophils ([1]; OVA group 71.75 ± 4.63, listed as montelukast): 27.88±2.80 ×10^3 cell/mouse; Cell Number, total cells ([1]; OVA group 524.30 ± 43.22, listed as montelukast): 167.68±8.80 ×10^3 cell/mouse; Inflammatory Index around blood vessels ([2]; listed as comparative control group 2): 0.50±0.25
COc1c(O)cc(O)c2c(=O)cc(-c3ccccc3)oc12 [Wogonin] | 143.68 ± 14.08 | 32.24±8.84 ×10^3 cell/mouse | 140.28 ± 26.24 ×10^3 cell/mouse | 172.52±29.29 ×10^3 cell/mouse | 1.00±0.28 | 1.40±0.22 | 1.7059 ± 0.3028 | 21.92 ± 0.43 | 12.10 ± 1.87 | 19418.52 ± 1332.101 | 118.11 ± 29.80 | 60.91 ± 4.14 | 68.42 | 0.4261 ± 0.0069 | 2.0166 ± 0.2248 | 2.6055 ± 0.2280 | 106.87 ± 10.47 | suppression of IL-13 expression compared with the asthma induced group (IL-13; lung, vs asthma induced group): 23.30%; suppression of IL-4 expression compared with the asthma induced group (IL-4; lung, vs asthma induced group): 26.14%; Penh value over the increase of methacholine concentration ([5]; range over methacholine concentrations): 1.7059-2.6055; suppression of IL-6 expression compared with the asthma induced group (IL-6; lung, vs asthma induced group): 16.64%

Reference: patent publication US20140228427A1, “PHARMACEUTICAL COMPOSITION CONTAINING WOGONIN AS AN ACTIVE INGREDIENT FOR PREVENTING OR TREATING ASTHMA” (KOREA RESEARCH INSTITUTE OF BIOSCIENCE AND BIOTECHNOLOGY, priority 2011, published 2014)
